Reference: the NIST ThermoML archive (doi:10.1021/acs.jced.7b00902)

Details: Surface laser light scattering (SLLS); for viscosity: Liquid

FC(F)(F)/C=C/Cl [(E)-1-chloro-3,3,3-trifluoroprop-1-ene]
Details	surface tension liquid-gas [mN/m]	viscosity [mPa·s]
303.14 K	13.3	0.2857
313.15 K	12.37	0.2504
323.19 K	10.89	0.2265
333.18 K	9.74	0.2079
343.16 K	8.62	0.1891
353.19 K	7.58	0.1695
363.15 K	6.4	0.1595
373.14 K	5.38	0.1406
373.17 K	5.38	0.1448
383.15 K	4.37	0.1318
393.17 K	3.41	0.1191
403.15 K	2.45	0.1047

O=C(C(F)(F)C(F)(F)F)C(F)(C(F)(F)F)C(F)(F)F [dodecafluoro-2-methylpentan-3-one]
Details	surface tension liquid-gas [mN/m]	viscosity [mPa·s]
303.16 K	10.09	0.585
313.12 K	9.26	0.4939
313.18 K	9.24	0.5033
323.15 K	8.43	0.4357
333.12 K	7.56	0.3776
343.15 K	6.7	0.329
353.16 K	5.84	0.2907
363.14 K	4.99	0.2569
373.14 K	4.19	0.228
383.13 K	3.44	0.1998
393.15 K	2.71	0.1719
403.17 K	2.02	0.1471
413.18 K	1.37	0.1309
423.15 K	0.78	0.104
433.02 K	0.27	0.0768
